From the supplement of paper PMC11061612

What was measured:
Test in all cases: combination Emax (second highest fraction inhibited in the dose matrix, 72 h); higher = more inhibition; extreme values may be limits of the assay
[1] = tested on: SCC90 (Head and Neck Carcinoma)
How it was run: (§1)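 Bliss excess equals the observed combination effect minus the expected value EA + EB − EA·EB, where EA and EB are the effects of each agent alone. Combination Emax is the second-highest inhibition within the matrix. Inhibition was scaled from CellTiter-Glo 2.0 luminescence, with 0 set by vehicle wells and 1 by blank wells, after 72 hours of two-drug dosing of cells plated in 1536-well plates.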

[2] = tested on: GRANTA-519 (B-Cell Non-Hodgkin's Lymphoma)
How it was run: as §1

[3] = tested on: OVKATE (Ovarian Carcinoma)
How it was run: as §1

[4] = tested on: BT-474 (Breast Carcinoma)
How it was run: as §1

[5] = tested on: NCI-H1648 (Lung Adenocarcinoma)
How it was run: as §1

[6] = tested on: HT-144 (Melanoma)
How it was run: as §1

[7] = tested on: HT-1197 (Bladder Carcinoma)
How it was run: as §1

[8] = tested on: SNU-1 (Gastric Carcinoma)
How it was run: as §1

[9] = tested on: COR-L105 (Lung Adenocarcinoma)
How it was run: as §1

[10] = tested on: NCI-H2170 (Squamous Cell Lung Carcinoma)
How it was run: as §1

[11] = tested on: A375 (Melanoma)
How it was run: as §1

[12] = tested on: SBC-5 (Small Cell Lung Carcinoma)
How it was run: as §1

[13] = tested on: NCI-H2452 (Mesothelioma)
How it was run: as §1

[14] = tested on: SBC-3 (Small Cell Lung Carcinoma)
How it was run: as §1

[15] = tested on: SUP-HD1 (Hodgkin's Lymphoma)
How it was run: as §1

[16] = tested on: SK-N-DZ (Neuroblastoma)
How it was run: as §1

[17] = tested on: CAL-85-1 (Breast Carcinoma)
How it was run: as §1

[18] = tested on: SW1463 (Colorectal Carcinoma)
How it was run: as §1

[19] = tested on: KNS-62 (Squamous Cell Lung Carcinoma)
How it was run: as §1

[20] = tested on: MG-63 (Osteosarcoma)
How it was run: as §1

| SMILES | combination Emax [1] | combination Emax [2] | combination Emax [3] | combination Emax [4] | combination Emax [5] | combination Emax [6] | combination Emax [7] | combination Emax [8] | combination Emax [9] | combination Emax [10] | combination Emax [11] | combination Emax [12] | combination Emax [13] | combination Emax [14] | combination Emax [15] | combination Emax [16] | combination Emax [17] | combination Emax [18] | combination Emax [19] | combination Emax [20] |
| --- | --- | --- | --- | --- | --- | --- | --- | --- | --- | --- | --- | --- | --- | --- | --- | --- | --- | --- | --- | --- |
| CN(CCO)CC[C@H](CSc1ccccc1)Nc1ccc(S(=O)(=O)NC(=O)c2ccc(N3CCC([C@@H](O)c4ccccc4-c4ccc(Cl)cc4)CC3)cc2)cc1S(=O)(=O)C(F)(F)F [AZD4320] + C[C@@H](Nc1cc(F)cc(F)c1)c1cc(C(=O)N(C)C)cc2c(=O)cc(N3CCOCC3)oc12 [AZD8186] (first compound max 1 µM, 7x7, partner max 3 µM) | 0.557 | 1 | 0.438 | 0.428 | 0.812 | 0.455 | 0.319 | 0.877 | 0.387 | 0.764 | 0.519 | 0.41 | 0.364 | 0.979 | 0.96 | 0.868 | 0.668 | 0.27 | 0.382 | 0.375 |
| COc1nnc2ccc(N3CCC(c4ccc(OCCN5CCN(C)C(=O)[C@H]5C)cc4)CC3)nn12 [AZD5153] + Cc1c2c(nn1C)CSCc1cc(n(C)n1)CSc1cc(c3ccccc3c1)OCCCc1c(C(=O)O)n(C)c3c-2c(Cl)ccc13 [AZD5991] (first compound max 1 µM, 7x7, partner max 1 µM) | 0.9 | 0.314 | 0.333 | 0.912 | 0.818 | 0.978 | 0.966 | 0.976 | 0.568 | 0.636 | 0.606 | 0.988 | 0.53 | 0.753 | 0.946 | 0.751 | 0.779 | 0.581 | 0.503 | 0.697 |
| CN(CCO)CC[C@H](CSc1ccccc1)Nc1ccc(S(=O)(=O)NC(=O)c2ccc(N3CCC([C@@H](O)c4ccccc4-c4ccc(Cl)cc4)CC3)cc2)cc1S(=O)(=O)C(F)(F)F [AZD4320] + C[C@@H]1COCCN1C2=NC(=NC(=C2)C3(CC3)[S@](=N)(=O)C)C4=C5C=CNC5=NC=C4 [AZD6738] (first compound max 1 µM, 7x7, partner max 10 µM) | 0.535 | 0.999 | 0.621 | 0.259 | 0.872 | 0.765 | 0.443 | 0.896 | 0.54 | 0.829 | 0.789 | 0.771 | 0.704 | 0.925 | 0.98 | 1 | 0.633 | 0.566 | 0.581 | 0.525 |
| Cc1c2c(nn1C)CSCc1cc(n(C)n1)CSc1cc(c3ccccc3c1)OCCCc1c(C(=O)O)n(C)c3c-2c(Cl)ccc13 [AZD5991] + CN(C)CCCOc1ccc(-c2ccc3ncc4c(c3c2)n(C2CCOCC2)c(=O)n4C)cn1 [AZD0156] (first compound max 1 µM, 7x7, partner max 1 µM) | 0.904 | 0.209 | 0.247 | 0.306 | 0.701 | 0.87 | 0.217 | 0.584 | 0.258 | 0.317 | 0.457 | 0.497 | 0.372 | 0.292 | 0.617 | 0.265 | 0.206 | 0.204 | 0.174 | 0.251 |
| NC1(C(=O)N[C@@H](CCO)c2ccc(Cl)cc2)CCN(c2ncnc3[nH]ccc23)CC1 [Capivasertib] + Cn1cnc2c(F)c(Nc3ccc(Br)cc3Cl)c(C(=O)NOCCO)cc21 [Selumetinib] (first compound max 10 µM, 7x7, partner max 10 µM) | 0.992 | 0.205 | 0.385 | 0.39 | 0.893 | 0.985 | 0.531 | 0.574 | 0.492 | 0.653 | 0.832 | 0.627 | 0.344 | 0.346 | 0.496 | 0.405 | 0.411 | 0.65 | 0.914 | 0.793 |
| NC1(C(=O)N[C@@H](CCO)c2ccc(Cl)cc2)CCN(c2ncnc3[nH]ccc23)CC1 [Capivasertib] + COc1nnc2ccc(N3CCC(c4ccc(OCCN5CCN(C)C(=O)[C@H]5C)cc4)CC3)nn12 [AZD5153] (first compound max 10 µM, 7x7, partner max 1 µM) | 0.986 | 0.317 | 0.284 | 0.416 | 0.753 | 0.855 | 0.759 | 0.652 | 0.381 | 0.594 | 0.469 | 0.563 | 0.456 | 0.744 | 0.857 | 0.646 | 0.434 | 0.521 | 0.809 | 0.86 |
| COc1cccc(OCCCN)c1-c1cc(Nc2cnc(C#N)cn2)n[nH]1 [Prexasertib] + CCc1c2c(nc3ccc(O)cc13)-c1cc3c(c(=O)n1C2)COC(=O)[C@]3(O)CC [SN-38] (first compound max 1 µM, 7x7, partner max 0.3 µM) | 0.952 | 1 | 0.258 | 0.244 | 0.962 | 0.912 | 0.543 | 0.953 | 0.488 | 0.956 | 0.962 | 0.997 | 0.895 | 0.957 | 0.954 | 1 | 0.85 | 0.741 | 0.874 | 0.964 |
| NC1(C(=O)N[C@@H](CCO)c2ccc(Cl)cc2)CCN(c2ncnc3[nH]ccc23)CC1 [Capivasertib] + CCN(CCO)CCCOc1ccc2c(Nc3cc(CC(=O)Nc4cccc(F)c4)[nH]n3)ncnc2c1 [AZD2811] (first compound max 10 µM, 7x7, partner max 1 µM) | 0.867 | 0.597 | 0.309 | 0.348 | 0.525 | 0.764 | 0.439 | 0.404 | 0.377 | 0.834 | 0.421 | 0.383 | 0.403 | 0.622 | 0.657 | 0.619 | 0.203 | 0.319 | 0.561 | 0.855 |
